Experiment: Serum concentration of amphotericin B in rabbits after rectal administration of suppositories (HPLC)
Details: rabbit, in vivo, 10 mg/kg
Method: The base Witepsol H-15 was melted at 45° C in a temperature-controlled bath. Equal portions of amphotericin B and dipotassium glycyrrhizinate were added and the mixture was quickly poured into suppository molds and allowed to solidify at room temperature. The target potency was 20 mg amphotericin B/g suppository.
This procedure was repeated with ratios of 1:4 and 1:9 w/w amphotericin B:dispotassium glycyrrhizinate.
These suppositories were tested on white male rabbits weighing from 2.6 to 3.2 kg that received water freely but otherwise fasted for 24 hours prior to administration. Amphotericin B was dosed in 10 mg (activity)/kg and positioned about 2 cm into the rectum. Blood samples of about 1.5 ml were collected from an ear vein of each rabbit at appropriate intervals and evaluated according to procedures in Nilsson-Ehle et al., "Quantitation of amphotericin B with use of High-Pressure Liquid Chromatography," J. Infectious Diseases, Vol. 135, No. 3 (1977).

concentration at 1 h: 1 ng/mL
concentration at 3 h: 2.3 ng/mL
concentration at 5 h: 1.5 ng/mL
concentration at 7 h: 1 ng/mL
concentration at 9 h: 3.3 ng/mL
concentration at 11 h: 2.7 ng/mL
concentration at 24 h: 1.3 ng/mL
SMILES: C[C@@H]1[C@H](O)[C@@H](C)/C=C/C=C/C=C/C=C/C=C/C=C/C=C/[C@H](O[C@@H]2O[C@H](C)[C@@H](O)[C@H](N)[C@@H]2O)C[C@@H]2O[C@](O)(C[C@@H](O)C[C@@H](O)[C@H](O)CC[C@@H](O)C[C@@H](O)CC(=O)O[C@H]1C)C[C@H](O)[C@H]2C(=O)O [Amph., amphotericin B]

Source: patent EP0466038A1, “Water-dispersible polyene antifungal complexes” (priority 1990, dated 1992)
